Earlier results in paper PMC5861163 (European Journal of Nutrition, 2017).

Test system: human faecal microbiota
Set-up: method as in PMID 26471074
Settings: after 24 h of fermentation in vitro

Molecule	degraded by the human faecal microbiota
O=C(/C=C/c1ccc(O)cc1)CC(=O)/C=C/c1ccc(O)cc1 [bisdemethoxycurcumin]	≤ 87%
demethoxycurcumin	≤ 61%
